Experiment [1] concerns the target T1, KRas G12C (Homo sapiens, UniProt P01116, C118S/C51S/C80L/G12C).
T1 construct: GDP-loaded K-Ras (1-169) G12C, C51S, C80L, C118S
Put plainly: KRas G12C Modification Assay (LCMS detection of covalent adduct). The experiment is classed as binding. To be noted: 5 μM concentration for 3 hours. Here is the method: This Example illustrates that exemplary compounds of the present invention covalently bind to KRas G12C using a LCMS assay to detect a covalent adduct of the exemplary compound and KRAS G12C.
The protein concentration of GDP-loaded K-Ras (1-169) G12C, C51S, C80L, C118S and GTP-loaded K-Ras (1-169) G12C, C51S, C80L, C118S, Q61H was adjusted to 2 μM in K-Ras Assay Buffer (25 mM HEPES, 150 mM NaCl, 5 mM MgCl2, and 10 mM Octyl β-glucopyranoside at pH 7.5). A 10 μL aliquot of each protein solution was transferred to a 384 well microtiter plate. Initial compound stocks were generated at fifty times their desired final assay concentration in DMSO.
Exemplary compounds of formula (I) were diluted 25-fold into K-Ras Assay Buffer to a final of two times their final concentration. A 10 μL aliquot of each diluted compound solution was added to each of the protein solutions in the microtiter plate to initiate reaction. Typical final compound concentrations were 3.0, 5.0 and 25.0 μM. At each time point, the reactions were quenched with 20 μL of a 25 mM acetic acid solution. Usual assay endpoints were 15, 180 and 1440 minutes. Once all reactions were quenched, the plates were heat sealed and the samples were injected into a LC/MS system for data acquisition.
Data collection took place on an Agilent 6520 Q-TOF Accurate Mass Spectrometer. Samples were injected in their liquid phase onto a C-3 reverse phase column to remove assay buffer and prepare the samples for mass spectrometer. The proteins were eluted from the column using an acetonitrile gradient and fed directly into the mass analyzer. Initial raw data analysis took place in Agilent MassHunter software immediately post data acquisition.
Raw data analysis of the intact protein was exclusively a deconvolution of the multiple charge states of each protein in solution using a maximum entropy deconvolution provided in Mass Hunter. To minimize complexity, only the data over limited mass ranges were considered for analysis, with a minimum of one Dalton mass step intervals. The heights of all masses identified during raw data analysis were exported to be further analyzed in Spotfire® data analysis software.
Final data analysis was a multistep process in the Spotfire® data analysis software package. Briefly, each protein mass was calculated as a percent of the total signal of that sample, that percentage was normalized to the percentage of signal of the protein in the absence of reactive compounds. Those normalized signals were reported as normalized percent of control (POC). […] Key: N.D. is not determined.

Experiment [2] deals with T2, KRas G12C (Homo sapiens, UniProt P01116, G12C).
T2 construct: NCI-11358 cells (ATCC CRL-5807) express KRas G12C; host or cells: NCI-H358
Nature of the experiment: Cellular inhibition of KRas G12C measured by Phospho-ERK in NCI-11358 cells. The class given is cell-based. To be noted: NCI-11358 cells (ATCC CRL-5807), 3 hours; read-out: Inhibition (IC50, pERK (Thr202/Tyr204) signal normalized with GAPDH). The procedure:
The cellular inhibition of KRAs G12C by exemplary compounds of the present invention was determined by measuring the amount of a downstream marker of KRas activity, phosphorylated ERK (“Phospho-ERK”).
NCI-11358 cells (ATCC CRL-5807) express KRas G12C and were grown in RPMI medium supplemented with 10% fetal bovine serum, penicillin/streptomycin and 10 mM HEPES. Cells were plated in poly-D-Lysine coated 96-well plates at a concentration of 50,000 cells/well and allowed to attach for 8-12 hours. Diluted compounds were then added at a final concentration of 0.5% DMSO. After 3 hours, the medium was removed, 150 μL of 4% formaldehyde was added and the plates were incubated for 20 minutes. The plates were washed with PBS, and permeabilized using 150 μL of ice cold 100% methanol for 10 minutes. Non-specific antibody binding to the plates was blocked using 100 μL Licor Blocking Buffer (Li-Cor Biotechnology, Lincoln NE) for 1 hour at room temperature. Positive control samples and samples lacking cells were parallel processed with test samples as standards.
The amount Phospho-ERK was determined using an antibody specific for the phosphorylated form of ERK and compared to the amount of GAPDH. Primary antibodies used for detection were added as follows: Phospho-ERK (Cell Signaling cs9101) diluted 1:500 and GAPDH (Millipore MAB374) diluted 1:5000 in Licor block+0.05% Tween 20. The plates were incubated for 2 hours at room temperature. The plates were washed with PBS+0.05% Tween 20.
Secondary antibodies used to visualize primary antibodies were added as follows: Anti-rabbit-680 diluted 1:1000 and Anti-mouse-800 diluted 1:1000 in Licor Block+0.05% Tween 20 and incubated for 1 hour at room temperature. The plates were washed with PBS+0.05% Tween 20. A 100 μL aliquot of PBS was added to each well and the plates were read on a LICOR AERIUS plate reader.
The pERK (Thr202/Tyr204) signal was normalized with the GAPDH signal and percent of DMSO control values were calculated. IC50 values were generated using a 4 parameter fit of the dose response curve. Key: “A”: ≤1 μM, “B”>1 μM and N.D.=not determined.

Where a name gives a salt, the structure may show the parent alone.

Take `C=CC(=O)N1CC(CN2C(=O)C(CN3CCN(C)CC3)Oc3cc(-c4cc(O)cc5ccccc45)c(Cl)cc32)C1` (stereo not drawn) [Example 8, 4-((1-acryloylazetidin-3-yl)methyl)-6-chloro-7-(3-hydroxynaphthalen-1-yl)-2-((4-methylpiperazin-1-yl)methyl)-2H-benzo[b][1,4]oxazin-3(4H)-one bis(2,2,2-trifluoroacetate)]: in experiment [1], the “POC (normalized percent of control, covalent modification of KRas G12C)” value was 87% of control. Besides, the IC50 in experiment [2] is at most 1000 nM.

As to `C=CC(=O)N1CC(CN2C(=O)COc3cc(-c4cc(O)cc5ccccc45)ccc32)C1` [Example 12, 4-((1-acryloylazetidin-3-yl)methyl)-7-(3-hydroxynaphthalen-1-yl)-2H-benzo[b][1,4]oxazin-3(4H)-one], the “POC (normalized percent of control, covalent modification of KRas G12C)” value in experiment [1] was 94% of control. The IC50 in experiment [2] was above 1000 nM.

With `C=CC(=O)N1CC(F)(CN2C(=O)COc3cc(-c4cc(O)cc5ccccc45)c(Cl)cc32)C1` [Example 13, 4-((1-acryloyl-3-fluoroazetidin-3-yl)methyl)-6-chloro-7-(3-hydroxynaphthalen-1-yl)-2H-benzo[b][1,4]oxazin-3(4H)-one], the “POC (normalized percent of control, covalent modification of KRas G12C)” value in experiment [1] is reported as 93% of control. For the same compound, the IC50 in experiment [2] is at most 1000 nM.

Regarding `C=CC(=O)N1CC(CN2C(=O)CSc3cc(-c4cc(O)cc5ccccc45)ccc32)C1` [Example 14, 4-((1-acryloylazetidin-3-yl)methyl)-7-(3-hydroxynaphthalen-1-yl)-2H-benzo[b][1,4]thiazin-3(4H)-one], the “POC (normalized percent of control, covalent modification of KRas G12C)” value in experiment [1] is recorded as 102% of control. Also, the IC50 in experiment [2] is above 1000 nM.

In the case of `C=CC(=O)N1CC(CN2C(=O)COc3cc(-c4c(C)ccc5[nH]cnc45)c(Cl)cc32)C1` [Example 15, 4-((1-acryloylazetidin-3-yl)methyl)-6-chloro-7-(5-methyl-1H-benzo[d]imidazol-4-yl)-2H-benzo[b][1,4]oxazin-3(4H)-one trifluoroacetate salt], the “POC (normalized percent of control, covalent modification of KRas G12C)” value in experiment [1] is on record as 97% of control. The IC50 in experiment [2] was above 1000 nM.

As to `C=CC(=O)N1CC(CN2C(=O)COc3c2cc(Cl)c(-c2cc(O)cc4ccccc24)c3F)C1` [Example 16, 4-((1-acryloylazetidin-3-yl)methyl)-6-chloro-8-fluoro-7-(3-hydroxynaphthalen-1-yl)-2H-benzo[b][1,4]oxazin-3(4H)-one], the “POC (normalized percent of control, covalent modification of KRas G12C)” value in experiment [1] was 100% of control. Further, the IC50 in experiment [2] was above 1000 nM.

As for `C=CC(=O)N1CC(C)(CN2C(=O)COc3cc(-c4cc(O)cc5ccccc45)c(Cl)cc32)C1` [Example 17, 4-((1-acryloyl-3-methylazetidin-3-yl)methyl)-6-chloro-7-(3-hydroxynaphthalen-1-yl)-2H-benzo[b][1,4]oxazin-3(4H)-one], the “POC (normalized percent of control, covalent modification of KRas G12C)” value in experiment [1] is 85% of control. The IC50 in experiment [2] was above 1000 nM.

Take `C=CC(=O)N1CC(CN2C(=O)[C@@H](CCN(C)C)Oc3cc(-c4cc(O)cc5ccccc45)c(Cl)cc32)C1` [Example 18, (R)-4-((1-acryloylazetidin-3-yl)methyl)-6-chloro-2-(2-(dimethylamino)ethyl)-7-(3-hydroxynaphthalen-1-yl)-2H-benzo[b][1,4]oxazin-3(4H)-one]: the “POC (normalized percent of control, covalent modification of KRas G12C)” value in experiment [1] is reported as 91% of control. Besides, in experiment [2], the IC50 is at most 1000 nM.

Regarding `C=CC(=O)N1CC(CN2C(=O)COc3cc(-c4cc(O)cc5ccccc45)c(C)cc32)C1` [Example 19, 4-((1-acryloylazetidin-3-yl)methyl)-7-(3-hydroxynaphthalen-1-yl)-6-methyl-2H-benzo[b][1,4]oxazin-3(4H)-one], in experiment [1], the “POC (normalized percent of control, covalent modification of KRas G12C)” value was 99% of control. In addition, the IC50 in experiment [2] was above 1000 nM.

The values above are taken from patent publication US11932633B2, “KRas G12C inhibitors” (Mirati Therapeutics, Inc., priority 2018, dated 2024).
